As usually defined, the IC50 is the concentration that inhibits the measured activity by half. Read a low IC50 as greater potency in that assay. A word on the inhibition: it is the relative decrease from the control value, in per cent.

We go through one compound from patent US20240279190A1, “COMPOUNDS FOR MODULATING PLATELET-TYPE 12-(S)-LIPOXYGENASE AND METHODS OF USE FOR SAME” (The Regents of The University of California, priority 2021, published 2024).

Experiment [1] has as its target T1, wt12-LOX (Homo sapiens, UniProt P18054).
T1 construct: 6xHis (N); made in house; insert in pFastBac1 shuttle vector (baculovirus system, own inference)
T1 sequence (P18054 1-663): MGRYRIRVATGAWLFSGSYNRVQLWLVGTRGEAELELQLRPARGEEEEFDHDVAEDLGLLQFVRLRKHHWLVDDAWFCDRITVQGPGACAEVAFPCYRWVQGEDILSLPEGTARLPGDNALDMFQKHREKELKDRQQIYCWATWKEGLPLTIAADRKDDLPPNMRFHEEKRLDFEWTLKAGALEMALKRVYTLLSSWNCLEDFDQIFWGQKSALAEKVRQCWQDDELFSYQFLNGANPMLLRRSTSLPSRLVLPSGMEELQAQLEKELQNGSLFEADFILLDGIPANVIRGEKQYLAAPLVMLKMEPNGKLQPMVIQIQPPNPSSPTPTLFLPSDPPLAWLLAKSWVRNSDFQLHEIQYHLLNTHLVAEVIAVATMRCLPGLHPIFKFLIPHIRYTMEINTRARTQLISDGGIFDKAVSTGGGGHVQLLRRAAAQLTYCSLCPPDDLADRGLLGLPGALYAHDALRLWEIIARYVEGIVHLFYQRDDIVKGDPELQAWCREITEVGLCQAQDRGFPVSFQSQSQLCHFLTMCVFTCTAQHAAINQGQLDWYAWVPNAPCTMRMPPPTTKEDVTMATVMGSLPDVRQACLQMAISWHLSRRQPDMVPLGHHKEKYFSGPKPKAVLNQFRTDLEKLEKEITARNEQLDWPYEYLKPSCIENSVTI
Briefly: UV-Vis-based IC50 assay, wild type 12-LOX. Format: biochemical. The method, then: (§1) The wild type 12-LOX (wt-12-LOX) enzyme and its mutants were expressed as fusion proteins, with an N-terminal 6×His tag, and were affinity purified by nickel-iminodiacetic acid agarose using FPLC (Biorad).
The percent inhibition was determined by comparing the enzyme rates of the control (DMSO solvent) and the inhibitor sample by following the formation of the conjugated diene product at 234 nm (ε=25,000 M^−1cm^−1). The reactions were initiated by adding 200 nM 15-LOX-2, 30 nM 12-LOX, 40 nM 15-LOX-1, or approximately 100-300 nM (total protein) of 5-LOX ammonium sulfate fraction to a cuvette with 2 mL reaction buffer, constantly stirred using a magnetic stir bar at room temperature (22° C.). Reaction buffers used for various LOX isozymes were as follows: 25 mM HEPES (pH 7.3), 0.3 mM CaCl2), 0.1 mM EDTA, 0.2 mM ATP, 0.01% Triton X-100, 10 μM AA for the crude, ammonium sulfate precipitated 5-LOX; and 25 mM HEPES (pH 7.5), 0.01% Triton X-100, 10 μM AA for 15-LOX-2, 15-LOX-1, and 12-LOX. The substrate concentration was quantitatively determined by allowing the enzymatic reaction to go to completion in the presence of soybean LOX-1. IC50 values were obtained by determining the % inhibition, relative to solvent vehicle only, at various inhibitor concentrations. […]

Experiment [2] concerns the target T2, 12-LOX mutant A417I/V418M/S594T (Homo sapiens, UniProt P18054, A417I/S594T/V418M).
T2 construct: 6xHis (N); made in house; pFastBac1 shuttle vector
T2 sequence (P18054 1-663 A417I/V418M/S594T): T1 sequence (P18054 1-663) with A417I, V418M, S594T
Briefly: UV-Vis-based IC50 assay, A417I/V418M/S594T mutant. It counts as biochemical.
Description: Based on the ML355 binding mode predicted by the modeling, all residues within 5 Å of any atom of ML355 were selected for experimental mutagenesis. The selected residues were replaced with amino acids with either bulkier or smaller side chains in order to determine what specific interactions play a role in inhibitor binding. […] The numbering refers to the UniProt accession number P18054 sequence, with the N-terminal methionine assigned as amino acid number one. The primers for all mutants were designed using the online QuikChange Primer Design tool (http://www.genomics.agilent.com/primerDesignProgram.jsp) from Agilent Technologies (CA, USA). The mutations were introduced by using the QuikChange® II XL site-directed mutagenesis kit from Agilent, following the instructions in the protocol provided. […]
as §1
The percent inhibition was determined by comparing the enzyme rates of the control (DMSO solvent) and the inhibitor sample by following the formation of the conjugated diene product at 234 nm (ε=25,000 M^−1cm^−1). […] The substrate concentration was quantitatively determined by allowing the enzymatic reaction to go to completion in the presence of soybean LOX-1. […]

Where a chain is given by its changes, count along the chain named.

With `COc1cccc(CNc2ccc(S(=O)(=O)Nc3nc4c(ccc5ccccc54)s3)cc2)c1O` [Compound LOX-12-001, 4-((2-hydroxy-3-methoxybenzyl)amino)-N-(naphtho[1,2-d]thiazol-2-yl)benzenesulfonamide], the “fold increase in potency relative to ML355” value in experiment [1] (against wt12-LOX) was 7.2 fold. Further, the IC50 in experiment [1] (wt12-LOX, 10 μM AA, 25 mM HEPES pH 7.5, 22° C.) is 50 ± 20 nM; in experiment [2], more than 20000 nM. For the same compound, in experiment [2] (20 uM inhibitor, read-out: Percent inhibition at 20 uM inhibitor), the inhibition at 20 µM is 44%.
